Laboratory results taken from article PMC11558128 (Advanced Science, 2024).
Positions count from the first letter of the chain named. Where two headings read alike, the source gives them in different places. Positions of bridges follow the written chain, without caps; N, C: chain ends. Residues, ends and D or L forms follow the SMILES beside them.

Tests used:
rKv4.2 T280A = biological target: T1, rKv4.2 T280A (Rattus norvegicus, UniProt Q63881, T280A); assay: cell-based; details: mean ± SEM
T1 construct: expressed in transfected cells; host or cells: HEK293T
T1 sequence (Q63881 1-630 T280A): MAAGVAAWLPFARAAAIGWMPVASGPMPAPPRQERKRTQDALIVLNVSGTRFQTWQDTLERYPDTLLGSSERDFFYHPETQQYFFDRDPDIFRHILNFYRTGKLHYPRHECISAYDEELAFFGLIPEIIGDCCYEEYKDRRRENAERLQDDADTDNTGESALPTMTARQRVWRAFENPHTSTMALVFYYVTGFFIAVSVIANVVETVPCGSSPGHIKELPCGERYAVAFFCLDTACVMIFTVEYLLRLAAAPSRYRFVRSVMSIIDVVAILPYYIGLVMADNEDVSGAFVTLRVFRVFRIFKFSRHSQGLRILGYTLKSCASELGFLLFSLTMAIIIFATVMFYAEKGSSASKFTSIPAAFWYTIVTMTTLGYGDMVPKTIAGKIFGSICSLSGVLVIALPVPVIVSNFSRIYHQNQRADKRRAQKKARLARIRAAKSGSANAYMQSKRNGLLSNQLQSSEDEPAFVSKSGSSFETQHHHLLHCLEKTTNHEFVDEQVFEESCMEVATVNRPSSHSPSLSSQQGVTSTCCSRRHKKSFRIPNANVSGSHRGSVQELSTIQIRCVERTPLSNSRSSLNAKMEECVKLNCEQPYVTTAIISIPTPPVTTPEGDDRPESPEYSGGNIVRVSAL

rKv4.2 N282A = biological target: T2, rKv4.2 N282A (Rattus norvegicus, UniProt Q63881, N282A); assay: cell-based; details: mean ± SEM
T2 construct: expressed in transfected cells; host or cells: HEK293T
T2 sequence (Q63881 1-630 N282A): T1 sequence (Q63881 1-630 T280A) with A280T, N282A

rKv4.3 = biological target: T3, rKv4.3 (Rattus norvegicus, UniProt Q62897); assay: cell-based; details: whole-cell patch clamp, HEK293T; held at -80 mV, step to 0 mV; mean ± S.E.M., n = 3-8; SEM
T3 construct: expressed in transfected cells; host or cells: HEK293T
T3 sequence (Q62897 1-655): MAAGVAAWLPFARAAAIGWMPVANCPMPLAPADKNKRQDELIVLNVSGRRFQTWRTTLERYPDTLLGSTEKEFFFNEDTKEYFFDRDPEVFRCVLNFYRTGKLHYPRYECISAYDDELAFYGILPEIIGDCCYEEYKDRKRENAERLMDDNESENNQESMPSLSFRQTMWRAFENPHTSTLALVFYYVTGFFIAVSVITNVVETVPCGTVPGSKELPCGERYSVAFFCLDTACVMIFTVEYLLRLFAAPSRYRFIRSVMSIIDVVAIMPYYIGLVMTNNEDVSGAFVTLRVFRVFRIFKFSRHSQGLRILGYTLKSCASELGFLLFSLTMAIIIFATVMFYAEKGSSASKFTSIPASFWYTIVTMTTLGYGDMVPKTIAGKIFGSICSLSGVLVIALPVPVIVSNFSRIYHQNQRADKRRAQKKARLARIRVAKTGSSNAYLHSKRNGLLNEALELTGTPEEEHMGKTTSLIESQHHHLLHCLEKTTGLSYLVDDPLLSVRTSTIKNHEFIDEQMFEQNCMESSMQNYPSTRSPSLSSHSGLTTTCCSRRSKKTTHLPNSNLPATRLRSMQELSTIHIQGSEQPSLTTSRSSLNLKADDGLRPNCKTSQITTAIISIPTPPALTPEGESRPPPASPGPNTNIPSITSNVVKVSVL

rKv4.2 = biological target: T4, rKv4.2 (Rattus norvegicus, UniProt Q63881); assay: cell-based; details: whole-cell patch clamp, HEK293T, n = 3-8, SEM
T4 construct: expressed in transfected cells; host or cells: HEK293T
T4 sequence (Q63881 1-630): T1 sequence (Q63881 1-630 T280A) with A280T

[1] = system: other Kv channels (hKv1.1-1.5, rKv2.1, hKv3.1-3.4, mKv4.1, hKv7.2 and hERG); details: 1 µM toxin; n = 3-4

Row | Structure (SMILES) | IC50 (rKv4.2 T280A) | IC50 (rKv4.2 N282A) | IC50 (rKv4.3) | IC50 (rKv4.2; held at -80 mV, step to 0 mV, mean ± S.E.M., read-out: IC50 for rKv4.2) | effect on the current traces of other Kv channels [1] | IC50 (rKv4.2; mean ± SEM, read-out: IC50 on rKv4.2 WT)
1 | CC(C)C[C@@H]1NC(=O)[C@H](Cc2c[nH]c3ccccc23)NC(=O)[C@H](Cc2ccc(O)cc2)NC(=O)[C@H](CCCNC(=N)N)NC(=O)[C@@H](NC(=O)[C@@H](N)CCC(=O)O)CSSC[C@@H]2NC(=O)[C@@H]3CSSC[C@@H](C(=O)N[C@H](C(=O)N[C@@H](Cc4c[nH]c5ccccc45)C(=O)N[C@@H](CC(=O)O)C(=O)N[C@@H](Cc4c[nH]c5ccccc45)C(=O)N[C@H](C(=O)N[C@@H](Cc4ccccc4)C(N)=O)[C@@H](C)O)C(C)C)NC(=O)[C@H](Cc4c[nH]c5ccccc45)NC(=O)CNC(=O)[C@H](Cc4c[nH]cn4)NC(=O)[C@H](CCCCN)NC(=O)[C@@H]4CCCN4C(=O)[C@H](CO)NC(=O)[C@H](CSSC[C@H](NC(=O)[C@H]([C@@H](C)O)NC(=O)CNC1=O)C(=O)N[C@@H](CO)C(=O)N[C@@H](CCCCN)C(=O)N[C@@H]([C@@H](C)O)C(=O)NCC(=O)N[C@@H](CC(=O)O)C(=O)N3)NC(=O)[C@H](CO)NC(=O)[C@H](CC(C)C)NC(=O)[C@H](Cc1c[nH]cn1)NC(=O)[C@H](CO)NC2=O [HNTX-VIIa] (H-ECRYWLGTCSKTGDCCSHLSCSPKHGWCVWDWTF-NH2; disulfide 2-16, 9-21, 15-28) | 13 ± 2 nM | 21 ± 1 nM | 130 ± 14.5 nM | 18 ± 3.2 nM | no obvious or only minimal effect | –
2 | CC[C@H](C)[C@@H]1NC(=O)[C@@H]2CSSC[C@@H]3NC(=O)[C@H](C(C)C)NC(=O)[C@H](CC(C)C)NC(=O)[C@H](CC(N)=O)NC(=O)[C@@H]4CCCN4C(=O)[C@H](CCCNC(=N)N)NC(=O)[C@H](CSSC[C@H](NC(=O)[C@@H](N)CC(=O)O)C(=O)N[C@@H](CC(C)C)C(=O)NCC(=O)N[C@@H](C)C(=O)N[C@@H](Cc4ccccc4)C(=O)N[C@@H](CCCNC(=N)N)C(=O)N[C@@H](CCCCN)C(=O)N2)NC(=O)[C@H](CSSC[C@@H](C(=O)N[C@@H](CCCCN)C(=O)N[C@@H](Cc2ccc(O)cc2)C(=O)N[C@H](C(=O)N[C@@H](Cc2ccccc2)C(N)=O)C(C)C)NC(=O)[C@H](Cc2c[nH]c4ccccc24)NC(=O)[C@H](CCCNC(=N)N)NC(=O)[C@H](Cc2cnc[nH]2)NC(=O)[C@H](CC(C)C)NC(=O)[C@H](CCCNC(=N)N)NC(=O)[C@H](CO)NC3=O)NC(=O)[C@H](CCCCN)NC(=O)[C@H](CC(=O)O)NC(=O)[C@H](CC(N)=O)NC(=O)[C@H](CC(=O)O)NC(=O)[C@@H]2CCCN2C1=O [mGpTx1] (H-DCLGAFRKCIPDNDKCCRPNLVCSRLHRWCKYVF-NH2; disulfide 2-17, 9-23, 16-30) | 150 ± 32 nM | 17 ± 5 nM | 56 ± 4.8 nM | – | no obvious or only minimal effect | 81 ± 16 nM
